Data published in patent US20230081426A1, “COMPOUNDS AND METHODS FOR KRAS MODULATION AND INDICATIONS THEREFOR” (Plexxikon Inc., priority 2020, published 2023).
Read-outs that look alike come from different tables or passages of the source.

Experiments:
[1] = biological target: T1, G12D-mutant human KRAS (amino acid residues 1-188) (Homo sapiens, UniProt P01116, G12D); assay: KRAS Binding Disruption Assay (AlphaScreen; biotinylated KRpep-2d analogue or RAF1-RBD), G12D; conditions: for IC50: geometric mean, read-out: KRAS GMean IC50 (uM) MUTATION: G12D
T1 construct: G12D or G12C-mutant human KRAS (amino acid residues 1-188) with FLAG tag; made in house; host or cells: E. coli
Method in brief: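 Displacement format with mutant KRAS, biotinylated KRpep-2d analogue or RAF1-RBD (5-20 nM each) at pH 7.5 with 5 mM MgCl2.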

[2] = biological target: T2, G12C-mutant human KRAS (amino acid residues 1-188) (Homo sapiens, UniProt P01116, G12C); assay: KRAS Binding Disruption Assay (AlphaScreen; biotinylated KRpep-2d analogue or RAF1-RBD), G12C; conditions: geometric mean, read-out: KRAS GMean IC50 (uM) MUTATION: G12C
T2 construct: G12D or G12C-mutant human KRAS (amino acid residues 1-188) with FLAG tag; made in house; host or cells: E. coli
Procedure: Compound binding disrupts the interaction of KRpep-2d or RAF1-RBD with KRAS, leading to a decrease in Alpha signal.
All assay components were prepared in 20 mM HEPES (pH 7.5), 100 mM NaCl, 5 mM MgCl2, 0.01% Tween-20, and 0.01% BSA. Biotinylated analogues of KRpep-2d were custom synthesized. The binding disruption assays were performed using 5-20 nM of mutant KRAS and 5-20 nM of either biotinylated KRpep-2d analogue or RAF1-RBD. 19 μL of KRAS protein and 4 μL of biotinylated KRpep-2d or RAF1-RBD were added to the wells of a 384-well plate containing 1 μL of various concentrations of test compound or DMSO vehicle. 16 wells containing KRAS, biotinylated KRpep-2d or RAF1-RBD, and 5% DMSO served as high controls. 16 wells containing KRAS only and 5% DMSO served as low controls. Binding reactions were incubated for 1 hour at 25° C., then Anti-Flag Acceptor and Streptavidin Donor Alpha beads were added at a final concentration of 10 μg/mL for an additional hour at room temperature. Alpha signal was read out on a Perkin Elmer Envision HTS instrument. The percentage inhibition at individual compound concentrations relative to high and low controls was calculated. The data were analyzed by using nonlinear regression to generate IC50 values.

T1 sequence (P01116 1-188 isoform P01116-2 G12D): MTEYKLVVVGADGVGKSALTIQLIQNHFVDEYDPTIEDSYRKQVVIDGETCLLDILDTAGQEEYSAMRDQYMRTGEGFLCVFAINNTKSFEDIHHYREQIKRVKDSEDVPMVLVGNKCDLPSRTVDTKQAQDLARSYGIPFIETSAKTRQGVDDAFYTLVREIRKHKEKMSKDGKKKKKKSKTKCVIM
T2 sequence (P01116 1-188 isoform P01116-2 G12C): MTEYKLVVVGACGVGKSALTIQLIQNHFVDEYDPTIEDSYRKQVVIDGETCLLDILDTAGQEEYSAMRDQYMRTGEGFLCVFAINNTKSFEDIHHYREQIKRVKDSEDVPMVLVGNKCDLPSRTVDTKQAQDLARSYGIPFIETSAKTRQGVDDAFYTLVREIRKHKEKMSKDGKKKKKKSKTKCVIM

## CC(=O)NCCCN1CCCC1COc1nc(N2C[C@H]3CC[C@@H](C2)N3)c2ccc(-c3cc(O)cc4ccccc34)c(F)c2n1 (mixture of isomers) [P-0674, N-(3-((RS)-2-(((4-((1R,5S)-3,8-diazabicyclo[3.2.1]octan-3-yl)-8-fluoro-7-(3-hydroxynaphthalen-1-yl)quinazolin-2-yl)oxy)methyl)pyrrolidin-1-yl)propyl)acetamide]
[1]; KRAS G12D
  IC50: 0.0001 to 10 µM
[2]
  IC50: 0.0001 to 10 µM

## Cc1cc(CN2[C@@H]3CC[C@H]2CN(c2nc(OCC45CCCN4CCC5)nc4cc(-c5cc(O)cc6ccccc56)ccc24)C3)no1 [P-0006, 4-(4-((1R,5S)-8-((5-methylisoxazol-3-yl)methyl)-3,8-diazabicyclo[3.2.1]octan-3-yl)-2-((tetrahydro-1H-pyrrolizin-7a(5H)-yl)methoxy)quinazolin-7-yl)naphthalen-2-ol]
[1]; KRAS G12D
  IC50: 0.0001 to 10 µM
[2]
  IC50: 10 to 100 µM

## CCc1cc2c(N3C[C@H]4CC[C@@H](C3)N4)nc(OC[C@@H]3CCCN3C)nc2c(F)c1-c1cc(O)cc2ccccc12 [P-0013, 4-(4-((1R,5S)-3,8-diazabicyclo[3.2.1]octan-3-yl)-6-ethyl-8-fluoro-2-(((S)-1-methylpyrrolidin-2-yl)methoxy)quinazolin-7-yl)naphthalen-2-ol]
[1]; KRAS G12D
  IC50: 0.0001 to 10 µM
[2]
  IC50: 0.0001 to 10 µM

## CN(C)CCNc1nc(N2C[C@H]3CC[C@@H](C2)N3)c2ccc(-c3cc(O)cc4ccccc34)cc2n1 [P-0022, 4-(4-((1R,5S)-3,8-diazabicyclo[3.2.1]octan-3-yl)-2-((2-(dimethylamino)ethyl)amino)quinaz-olin-7-yl)naphthalen-2-ol]
[1]; KRAS G12D
  IC50: 0.0001 to 10 µM
[2]
  IC50: 10 to 100 µM

## CN(C)CCOc1nc(N2C[C@H]3CC[C@@H](C2)N3)c2ccc(-c3cc(O)cc4ccccc34)cc2n1 [P-0023, 4-(4-((1R,5S)-3,8-diazabicyclo[3.2.1]octan-3-yl)-2-(2-(dimethylamino)ethoxy)quinazolin-7-yl)naphthalen-2-ol]
[1]; KRAS G12D
  IC50: 0.0001 to 10 µM
[1]; Table 4, fold more potent than the compared compound of WO 2017/172979
  Improved KRAS G12D Biochemical Potency of Compounds with Bridged vs Non-Bridged R^1 Groups: P-0023 is about 57 times more potent than Compound 149 in WO 2017/172979.
[1]; Table 4, comparison with compounds of WO 2017/172979
  IC50: 0.29 µM
[2]
  IC50: 10 to 100 µM

## C=Cc1cc2c(N3C[C@H]4CC[C@@H](C3)N4)nc(OC[C@@H]3CCCN3C)nc2c(F)c1-c1cc(O)cc2ccccc12 [P-0036, 4-[4-(3,8-Diazabicyclo[3.2.1]octan-3-yl)-8-fluoro-2-[[(2S)-1-methylpyrrolidin-2-yl]methoxy]-6-vinyl-quinazolin-7-yl]naphthalen-2-ol]
[1]; KRAS G12D
  IC50: 0.0001 to 10 µM
[2]
  IC50: 0.0001 to 10 µM

## CN1CCC[C@H]1COc1nc(N2CC3CCCC(C2)N3)c2cc(Cl)c(-c3cc(O)cc4ccccc34)c(F)c2n1 [P-0039, 4-(4-(3,9-diazabicyclo[3.3.1]nonan-3-yl)-6-chloro-8-fluoro-2-(((S)-1-methylpyrrolidin-2-yl)methoxy)quinazolin-7-yl)naphthalen-2-ol]
[1]; KRAS G12D
  IC50: 0.0001 to 10 µM
[2]
  IC50: 0.0001 to 10 µM

## CN(C)C(=O)CCNc1nc(N2C[C@H]3CC[C@@H](C2)N3)c2ccc(-c3cc(O)cc4ccccc34)cc2n1 [P-0058, 3-((4-((1R,5S)-3,8-diazabicyclo[3.2.1]octan-3-yl)-7-(3-hydroxynaphthalen-1-yl)quinazolin-2-yl)amino)-N,N-dimethylpropanamide]
[1]; KRAS G12D
  IC50: 10 to 100 µM
[2]
  IC50: 10 to 100 µM

## CN(C)C(=O)CNc1nc(N2C[C@H]3CC[C@@H](C2)N3)c2ccc(-c3cc(O)cc4ccccc34)cc2n1 [P-0059, 2-((4-((1R,5S)-3,8-diazabicyclo[3.2.1]octan-3-yl)-7-(3-hydroxynaphthalen-1-yl)quinazolin-2-yl)amino)-N,N-dimethylacetamide]
[1]; KRAS G12D
  IC50: 10 to 100 µM
[2]
  IC50: 10 to 100 µM

## CNCCNc1nc(N2C[C@H]3CC[C@@H](C2)N3)c2ccc(-c3cc(O)cc4ccccc34)cc2n1 [P-0061, 4-(4-((1R,5S)-3,8-diazabicyclo[3.2.1]octan-3-yl)-2-((2-(methylamino)ethyl)amino)quinazo-lin-7-yl)naphthalen-2-ol]
[1]; KRAS G12D
  IC50: 0.0001 to 10 µM
[2]
  IC50: 100 to 1000 µM

## CC(CN)Oc1nc(N2C[C@H]3CC[C@@H](C2)N3)c2ccc(-c3cc(O)cc4ccccc34)cc2n1 (stereo partly drawn) [P-0062, 4-(2-((1-aminopropan-2-yl)oxy)-4-((1R,5S)-3,8-diazabicyclo[3.2.1]octan-3-yl)quinazolin-7-yl)naphthalen-2-ol]
[1]; KRAS G12D
  IC50: 0.0001 to 10 µM
[2]
  IC50: 10 to 100 µM

## CN1CCC[C@H]1COc1nc(N2C[C@H]3CC[C@@H](C2)O3)c2ccc(-c3cc(O)cc4ccccc34)c(F)c2n1 [P-0114, 4-(4-((1R,5S)-8-oxa-3-azabicyclo[3.2.1]octan-3-yl)-8-fluoro-2-(((S)-1-methylpyrrolidin-2-yl)methoxy)quinazolin-7-yl)naphthalen-2-ol]
[1]; KRAS G12D
  IC50: 0.0001 to 10 µM
[2]
  IC50: 0.0001 to 10 µM

## CCc1cccc2[nH]cc(-c3ncc4c(N5C[C@H]6CC[C@@H](C5)N6)nc(OC[C@@]56CCCN5C[C@H](F)C6)nc4c3F)c12 [P-0505, 4-((1R,5S)-3,8-diazabicyclo[3.2.1]octan-3-yl)-7-(4-ethyl-1H-indol-3-yl)-8-fluoro-2-(((2R,7aS)-2-fluorotetrahydro-1H-pyrrolizin-7a(5H)-yl)methoxy)pyrido[4,3-d]pyrimidine]
[1]; KRAS G12D
  IC50: 0.0001 to 10 µM
[2]
  IC50: 0.0001 to 10 µM

## Oc1cc(-c2ccc3c(N4C[C@H]5CC[C@@H](C4)N5)nc(N4CC(O)(C5CC5)C4)nc3c2F)c2ccccc2c1 [P-0636, 1-(4-((1R,5S)-3,8-diazabicyclo[3.2.1]octan-3-yl)-8-fluoro-7-(3-hydroxynaphthalen-1-yl)quinazolin-2-yl)-3-cyclopropylazetidin-3-ol]
[1]; KRAS G12D
  IC50: 0.0001 to 10 µM
[2]
  IC50: 0.0001 to 10 µM

## CCN(CC)C1CN(c2nc(N3C[C@H]4CC[C@@H](C3)N4)c3ccc(-c4cc(O)cc5ccccc45)c(F)c3n2)C1 [P-0637, 4-(4-((1R,5S)-3,8-diazabicyclo[3.2.1]octan-3-yl)-2-(3-(diethylamino)azetidin-1-yl)-8-fluoroquinazolin-7-yl)naphthalen-2-ol]
[1]; KRAS G12D
  IC50: 0.0001 to 10 µM
[2]
  IC50: 10 to 100 µM

## Oc1cc(-c2ccc3c(N4C[C@H]5CC[C@@H](C4)N5)nc(N4CC(N5CC(F)C5)C4)nc3c2F)c2ccccc2c1 [P-0638, 4-(4-((1R,5S)-3,8-diazabicyclo[3.2.1]octan-3-yl)-8-fluoro-2-(3-fluoro-[1,3′-biazetidin]-1′-yl)quinazolin-7-yl)naphthalen-2-ol]
[1]; KRAS G12D
  IC50: 0.0001 to 10 µM
[2]
  IC50: 10 to 100 µM

## CN(C)C1(CNc2nc(N3C[C@H]4CC[C@@H](C3)N4)c3ccc(-c4cc(O)cc5ccccc45)c(F)c3n2)CCOCC1 [P-0639, 4-(4-((1R,5S)-3,8-diazabicyclo[3.2.1]octan-3-yl)-2-(((4-(dimethylamino)tetrahydro-2H-pyran-4-yl)methyl)amino)-8-fluoroquinazolin-7-yl)naphthalen-2-ol]
[1]; KRAS G12D
  IC50: 0.0001 to 10 µM
[2]
  IC50: 10 to 100 µM

## CN(C)C1(C(N)=O)CN(c2nc(N3C[C@H]4CC[C@@H](C3)N4)c3ccc(-c4cc(O)cc5ccccc45)c(F)c3n2)C1 [P-0640, 1-(4-((1R,5S)-3,8-diazabicyclo[3.2.1]octan-3-yl)-8-fluoro-7-(3-hydroxynaphthalen-1-yl)quinazolin-2-yl)-3-(dimethylamino)azetidine-3-carboxamide]
[1]; KRAS G12D
  IC50: 0.0001 to 10 µM
[2]
  IC50: 10 to 100 µM

## Cc1cccc2cccc(-c3ccc4c(N5C[C@H]6CC[C@@H](C5)N6C(=O)CC#N)nc(OCC56CCCN5CCC6)nc4c3F)c12 [P-0813, 3-((1R,5S)-3-(8-fluoro-7-(8-methylnaphthalen-1-yl)-2-((tetrahydro-1H-pyrrolizin-7a(5H)-yl)methoxy)quinazolin-4-yl)-3,8-diazabicyclo[3.2.1]octan-8-yl)-3-oxopropanenitrile]
[2]
  IC50: 0.0001 to 10 µM
